The target of this assay is T1, human CTPS1 (Homo sapiens, UniProt P17812).
T1 construct: purchased Proteros biostructures GmbH
T1 sequence (P17812 1-591): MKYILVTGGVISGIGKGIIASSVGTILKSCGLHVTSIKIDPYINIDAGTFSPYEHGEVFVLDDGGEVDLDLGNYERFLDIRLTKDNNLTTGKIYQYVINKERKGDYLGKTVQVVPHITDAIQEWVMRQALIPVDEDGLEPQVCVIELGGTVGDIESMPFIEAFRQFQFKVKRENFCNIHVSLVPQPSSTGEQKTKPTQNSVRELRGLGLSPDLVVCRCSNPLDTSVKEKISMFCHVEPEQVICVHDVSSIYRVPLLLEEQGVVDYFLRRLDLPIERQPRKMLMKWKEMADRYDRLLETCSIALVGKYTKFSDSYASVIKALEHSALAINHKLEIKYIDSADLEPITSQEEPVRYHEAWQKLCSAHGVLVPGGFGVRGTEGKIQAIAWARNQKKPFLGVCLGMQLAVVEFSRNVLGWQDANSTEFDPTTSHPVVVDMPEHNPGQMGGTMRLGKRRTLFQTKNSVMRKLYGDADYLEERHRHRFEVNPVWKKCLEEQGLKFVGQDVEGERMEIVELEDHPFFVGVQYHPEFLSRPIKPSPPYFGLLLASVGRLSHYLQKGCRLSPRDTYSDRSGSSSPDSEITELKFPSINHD
As to the kind of experiment: Human CTPS1 enzyme inhibition (ADP-Glo Max assay). Type of assay: biochemical. To be noted: read-out: CTPS1 (Human CTPS1 Enzyme Inhibition data grouped by potency range). The procedure, abridged:
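ADP-Glo Max luminescence detection of ATP-to-ADP conversion by the enzyme, in 50 mM Tris, 10 mM MgCl2, 0.01% Tween-20, pH 8.0, with 2 mM L-cysteine added fresh. Enzyme preincubated with compound 10 minutes at 25° C. Percentage inhibition calculated per compound concentration.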
A general note: ADP-Glo turns the ADP formed in a reaction into a luminescent signal.

Where [1] appears, read: Table 18, additional potency data, 25° C.

Structures can show the parent of a compound that is named as a salt. Where two headings read alike, the source gives them in different places. A value given as a limit tells only on which side of the number the result lay.

With `CC(C)c1cc(-c2cncc(Cl)c2)ccc1NC(=O)C(C)(C)c1csc(NS(=O)(=O)C2CC2)n1` [T359, N-(4-(5-chloropyridin-3-yl)-2-isopropylphenyl)-2-(2-(cyclopropanesulfonamido)thiazol-4-yl)-2-methylpropanamide], the IC50 under setting [1] was below 100 nM. Consider `O=C(Nc1ccc(-c2cccnc2)cc1)C1CCCc2sc(NS(=O)(=O)C3CC3)nc21` (stereo not drawn) [T84], for which, under “Table 17, 25° C.”, the IC50 fell in the range of 100 to 1000 nM. With `CC(C)Oc1cncc(-c2ccc(NC(=O)C(C)(C)c3csc(NS(C)(=O)=O)n3)cc2)n1` [T395, N-(4-(6-isopropoxypyrazin-2-yl)phenyl)-2-methyl-2-(2-(methylsulfonamido)thiazol-4-yl)propanamide], under setting [1], the IC50 was below 100 nM.

Turning to `CCC(C(=O)Nc1ccc(-c2cncc(OC3CC3)n2)cc1)c1csc(NS(=O)(=O)C2CC2)n1` (stereo not drawn) [T77], the IC50 (Table 17, 25° C.) was below 100 nM. Still for that read-out and setting: under `CCOc1cncc(-c2ccc(NC(=O)C(CC)c3csc(NS(=O)(=O)C4CC4)n3)cc2)n1` (stereo not drawn) [T189] stands below 100 nM; under `COc1cncc(-c2ccc(NC(=O)C(OC)c3csc(NS(=O)(=O)C4CC4)n3)cc2)n1` (stereo not drawn) [T57], below 100 nM. As for `CCS(=O)(=O)Nc1nc(C(C)(C)C(=O)Nc2ccc(-c3cncc(C(F)(F)F)c3)cn2)cs1` [T380, 2-(2-(ethylsulfonamido)thiazol-4-yl)-2-methyl-N-(5′-(trifluoromethyl)-[3,3′-bipyridin]-6-yl)propanamide], under setting [1], the IC50 was below 100 nM. `CC(C(=O)Nc1ccc(-c2cncc(Cl)c2)cc1)c1csc(NS(=O)(=O)C2CC2)n1` (stereo not drawn) [T95]: the IC50 (Table 17, 25° C.) is below 100 nM. Same read-out and setting: under `CC(C)(C(=O)Nc1ccc(-c2cnccn2)c(F)c1)c1csc(NS(=O)(=O)C2CC2)n1` [T39] stands 100 to 1000 nM. As for `COC(C(=O)Nc1ccc(-c2cncc(C(F)(F)F)n2)cc1F)c1csc(NS(C)(=O)=O)n1` (stereo not drawn) [T452], under setting [1], the IC50 was below 100 nM. For the molecule `CCC(C(=O)Nc1ccc(-c2cncc(Cl)c2)cc1)c1csc(NS(=O)(=O)C2CC2)n1` (single isomer, unassigned) [T9, N-(4-(5-chloropyridin-3-yl)phenyl)-2-(2-(cyclopropanesulfonamido)thiazol-4-yl)butanamide.HCl], the IC50 (Table 17, 25° C.) is below 100 nM. Same read-out and setting: next, `COCCC(C(=O)Nc1ccc(-c2cncc(F)c2)cc1)c1csc(NS(=O)(=O)C2CC2)n1` (stereo not drawn) [T191]: below 100 nM. On to `CCC(CC)(C(=O)Nc1ccc(-c2cnccn2)cn1)c1csc(NS(=O)(=O)C2CC2)n1` [T3, 2-(2-(cyclopropanesulfonamido)thiazol-4-yl)-2-ethyl-N-(5-(pyrazin-2-yl)pyridin-2-yl)butanamide], for which the IC50 (Table 17, 25° C.) lay within 100 to 1000 nM. Take `CCc1cc(-c2cncc(C#N)c2)cc(CC)c1NC(=O)C(C)(C)c1csc(NS(=O)(=O)C2CC2)n1` [T349, N-(4-(5-cyanopyridin-3-yl)-2,6-diethylphenyl)-2-(2-(cyclopropanesulfonamido)thiazol-4-yl)-2-methylpropanamide]: the IC50 under setting [1] lay within 100 to 1000 nM. Consider `CCC(C(=O)Nc1ccc(-c2cncc(Cl)n2)cc1)c1csc(NS(=O)(=O)C2CC2)n1` (stereo not drawn) [T78, N-(4-(6-chloropyrazin-2-yl)phenyl)-2-(2-(cyclopropanesulfonamido)thiazol-4-yl)butanamide], for which the IC50 (Table 17, 25° C.) was below 100 nM. Turning to `CCOc1cncc(-c2cnc(NC(=O)C(CC)c3csc(NS(=O)(=O)C4CC4)n3)c(F)c2)n1` (single isomer, unassigned) [T456], the IC50 under setting [1] was below 100 nM. On to `CCOc1cncc(-c2ccc(NC(=O)C(CC)c3csc(NS(=O)(=O)C4CC4)n3)c(F)c2)n1` (stereo not drawn) [T198], for which, under “Table 17, 25° C.”, the IC50 is below 100 nM. On the same count and under the same terms, next, `CCC(C(=O)Nc1ccc(-c2cncc(OC)n2)cc1F)c1csc(NS(=O)(=O)C2CC2)n1` (stereo not drawn) [T208]: below 100 nM. Still for that read-out and setting: next, `CCC(C(=O)Nc1ccc(-c2cncc(F)c2)cc1)c1csc(NS(=O)(=O)C2CC2)n1` (single isomer, unassigned) [T72]: below 100 nM. For `CCOc1cncc(-c2ccc(NC(=O)C(OC)c3csc(NS(=O)(=O)C4CC4)n3)nc2)n1` (stereo not drawn) [T446], the IC50 under setting [1] was below 100 nM.

With `CCOc1cncc(-c2cnc(NC(=O)C(CCOC)c3csc(NS(=O)(=O)C4CC4)n3)c(F)c2)n1` (stereo not drawn) [T435], the IC50 under setting [1] is below 100 nM.

For `CCOc1cncc(-c2ccc(NC(=O)C(OC)c3csc(NS(=O)(=O)C4CC4)n3)cc2)n1` (single isomer, unassigned) [T330, 2-(2-(cyclopropanesulfonamido)thiazol-4-yl)-N-(4-(6-ethoxypyrazin-2-yl)phenyl)-2-methoxyacetamide], the IC50 under setting [1] is below 100 nM.

Take `CC(C)OC(C(=O)Nc1ccc(-c2cncc(C(F)(F)F)n2)cn1)c1csc(NS(=O)(=O)C2CC2)n1` (stereo not drawn) [T172]: the IC50 (Table 17, 25° C.) was below 100 nM. As to `COC(C(=O)Nc1ccc(-c2cncc(C(F)(F)F)n2)cn1)c1csc(NS(=O)(=O)C2CC2)n1` (stereo not drawn) [T214], the IC50 (Table 17, 25° C.) is below 100 nM. Still for that read-out and setting: next, `CC(C)C(C(=O)Nc1ccc(-c2cncnc2)cc1)c1csc(NS(=O)(=O)C2CC2)n1` (stereo not drawn) [T11, 2-(2-(cyclopropanesulfonamido)thiazol-4-yl)-3-methyl-N-(4-(pyrimidin-5-yl)phenyl)butanamide]: 100 to 1000 nM. Consider `CCC(C(=O)Nc1ccc(-c2cncc(C(F)(F)F)n2)cn1)c1csc(NS(=O)(=O)C2CC2)n1` (single isomer, unassigned) [T414, 2-(2-(cyclopropanesulfonamido)thiazol-4-yl)-N-(5-(6-(trifluoromethyl)pyrazin-2-yl)pyridin-2-yl)butanamide], for which, under setting [1], the IC50 is below 100 nM.

As to `COCCC(C(=O)Nc1ccc(-c2cncc(C(F)(F)F)n2)cc1F)c1csc(NS(=O)(=O)C2CC2)n1` (stereo not drawn) [T399, 2-(2-(cyclopropanesulfonamido)thiazol-4-yl)-N-(2-fluoro-4-(6-(trifluoromethyl)pyrazin-2-yl)phenyl)-4-methoxybutanamide], the IC50 under setting [1] was below 100 nM. Same read-out and setting: next, `CCOc1cncc(-c2ccc(NC(=O)C(C)(C)c3csc(NS(=O)(=O)CC4CC4)n3)c(F)c2)n1` [T433]: below 100 nM.

On to `C#Cc1cncc(-c2ccc(NC(=O)C(CC)c3csc(NS(=O)(=O)C4CC4)n3)cc2)n1` (stereo not drawn) [T22, 2-(2-(cyclopropanesulfonamido)thiazol-4-yl)-N-(4-(6-ethynylpyrazin-2-yl)phenyl)butanamide], for which the IC50 (Table 17, 25° C.) is below 100 nM. Same read-out and setting: next, `CCC(C(=O)Nc1ccc(-c2cncc(C#N)c2)cn1)c1csc(NS(=O)(=O)C2CC2)n1` (stereo not drawn) [T180]: below 100 nM. On the same count and under the same terms, under `CCC(C(=O)Nc1ccc(-c2cncc(F)c2)cc1F)c1csc(NS(=O)(=O)C2CC2)n1` (stereo not drawn) [T200] stands below 100 nM; under `CCC(C(=O)Nc1ccc(-c2cncc(C#N)c2)cc1)c1csc(NS(=O)(=O)C2CC2)n1` (stereo not drawn) [T194], below 100 nM. As to `CC(C)c1cncc(-c2ccc(NC(=O)C(C)(C)c3csc(NS(=O)(=O)C4CC4)n3)nc2)n1` [T336, 2-(2-(cyclopropanesulfonamido)thiazol-4-yl)-N-(5-(6-isopropylpyrazin-2-yl)pyridin-2-yl)-2-methylpropanamide], under setting [1], the IC50 fell in the range of 100 to 1000 nM.

As for `CCOc1cncc(-c2cnc(NC(=O)C(CC)c3csc(NS(=O)(=O)C4CC4)n3)c(F)c2)n1` (stereo not drawn) [T183], the IC50 (Table 17, 25° C.) was below 100 nM. On to `COC(C(=O)Nc1ccc(-c2cncc(OC(C)C)n2)cc1)c1csc(NS(=O)(=O)C2CC2)n1` (stereo not drawn) [T411, 2-(2-(cyclopropanesulfonamido)thiazol-4-yl)-N-(4-(6-isopropoxypyrazin-2-yl)phenyl)-2-methoxyacetamide], for which the IC50 under setting [1] is below 100 nM. On to `CCC(C(=O)Nc1ccc(-c2cnccn2)cc1)c1csc(NS(=O)(=O)C2CC2)n1` (stereo not drawn) [T70], for which, under “Table 17, 25° C.”, the IC50 lay within 100 to 1000 nM. On the same count and under the same terms, under `COC(C(=O)Nc1ccc(-c2cccnc2)cc1F)c1csc(NS(=O)(=O)C2CC2)n1` (stereo not drawn) [T220] stands below 100 nM.

With `CCC(C(=O)Nc1ccc(-c2cncc(C(F)(F)F)n2)cc1F)c1csc(NS(=O)(=O)C2CC2)n1` (stereo not drawn) [T197], the IC50 (Table 17, 25° C.) is below 100 nM. Same read-out and setting: next, `CCOc1cncc(-c2ccc3c(c2)CCN3C(=O)C(CC)c2csc(NS(=O)(=O)C3CC3)n2)n1` (stereo not drawn) [T206]: below 100 nM; `COC(C(=O)Nc1ccc(-c2cccnc2)cc1)c1csc(NS(=O)(=O)C2CC2)n1` (stereo not drawn) [T219]: below 100 nM; `CCC(C(=O)Nc1ccc(-c2cncc(OCC(F)(F)F)n2)cc1)c1csc(NS(=O)(=O)C2CC2)n1` (stereo not drawn) [T195]: below 100 nM.

Consider `CCOc1cncc(-c2ccc(NC(=O)C(C)(C)c3csc(NS(=O)(=O)C4CCCC4)n3)cc2)n1` [T335, 2-(2-(cyclopentanesulfonamido)thiazol-4-yl)-N-(4-(6-ethoxypyrazin-2-yl)phenyl)-2-methylpropanamide], for which, under setting [1], the IC50 was in the range of 100 to 1000 nM. With `CCC(C(=O)Nc1ccc(-c2cncc(Cl)c2)cc1)c1csc(NS(=O)(=O)C2CC2)n1` (racemic) [T8, N-(4-(5-chloropyridin-3-yl)phenyl)-2-(2-(cyclopropanesulfonamido)thiazol-4-yl)butanamide], the IC50 (Table 17, 25° C.) was below 100 nM. Take `CCOc1cncc(-c2ccc(NC(=O)C(CC)c3csc(NS(=O)(=O)C4CC4)n3)c(C#N)c2)n1` (stereo not drawn) [T440]: the IC50 under setting [1] was below 100 nM. As for `CCC(C(=O)Nc1ccc(-c2cncc(OC(C)C)n2)cn1)c1csc(NS(=O)(=O)C2CC2)n1` (stereo not drawn) [T174], the IC50 (Table 17, 25° C.) was below 100 nM.

For the origin of these results see patent US11655246B2, “Aminothiazole compounds as inhibitors of CTPS1” (STEP PHARMA S.A.S., priority 2017, dated 2023).
